Measured values published in ChEMBL document CHEMBL1201862, “PubChem BioAssay data set” (2004).
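Grown in 96-well plates, cells were treated for 48 hours with each compound at five concentrations. Insufficient inhibition: endpoint recorded as highest concentration tested. GI50 is the concentration that inhibits growth by half.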 Activity calls are given as the source filed them. Cut-off read from the data, not from the text of the source: active = GI50 up to about 1.1 µM and inactive = higher.

Legend:
Test in all cases: NCI tumour cell line growth inhibition, 48 h
SK-MEL-28 = system: SK-MEL-28
M14 = system: M14
HT-29 = system: HT-29
OVCAR-4 = system: OVCAR-4
OVCAR-8 = system: OVCAR-8
SNB-19 = system: SNB-19
TK-10 = system: TK-10
OVCAR-5 = system: OVCAR-5
HOP-92 = system: HOP-92
RPMI-8226 = system: RPMI-8226
NCI-H522 = system: NCI-H522
HCT-15 = system: HCT-15
CCRF-CEM = system: CCRF-CEM
SK-OV-3 = system: SK-OV-3
T47D = system: T47D
NCI/ADR-RES = system: NCI/ADR-RES
MDA-N = system: MDA-N
MCF7 = system: MCF7
DU-145 = system: DU-145

Structure (SMILES)	GI50 (SK-MEL-28)	GI50 (M14)	GI50 (HT-29)	GI50 (OVCAR-4)	GI50 (OVCAR-8)	GI50 (SNB-19)	GI50 (TK-10)	GI50 (OVCAR-5)	GI50 (HOP-92)	GI50 (RPMI-8226)	GI50 (NCI-H522)	GI50 (HCT-15)	GI50 (CCRF-CEM)	GI50 (SK-OV-3)	GI50 (T47D)	GI50 (NCI/ADR-RES)	GI50 (MDA-N)	GI50 (MCF7)	GI50 (DU-145)
Cc1cc(N(CCC#N)CCC#N)ccc1/C=C1\N=C(c2cc([N+](=O)[O-])ccc2Cl)N(c2cccc(Cl)c2)C1=O	> 100 µM (inactive)	> 100 µM (inactive)	45.2 µM (inactive)	> 100 µM (inactive)	> 100 µM (inactive)	< 0.01 µM (active)	> 100 µM (inactive)	> 100 µM (inactive)	> 100 µM (inactive)	> 100 µM (inactive)	58.6 µM (inactive)	> 100 µM	71.6 µM (inactive)	> 100 µM (inactive)					
O=C(O)C(Cc1ccccc1)NCc1c(O)ccc2c(-c3ccccc3)cc(=O)oc12 (stereo not given)	> 100 µM (inactive)	> 100 µM (inactive)	> 100 µM (inactive)	> 100 µM (inactive)	> 100 µM (inactive)	> 100 µM (inactive)	> 100 µM (inactive)	> 100 µM (inactive)	> 100 µM (inactive)	> 100 µM (inactive)	> 100 µM (inactive)	> 100 µM	> 100 µM (inactive)	> 100 µM (inactive)	> 100 µM (inactive)	> 100 µM (inactive)	> 100 µM (inactive)	> 100 µM (inactive)	> 100 µM (inactive)
O=C(NC(Cl)(C(F)(F)F)C(F)(F)F)c1ccc(F)cc1	> 100 µM (inactive)	> 100 µM (inactive)	> 100 µM (inactive)	> 100 µM (inactive)	> 100 µM (inactive)	> 100 µM (inactive)	> 100 µM (inactive)	> 100 µM (inactive)	> 100 µM (inactive)	> 100 µM (inactive)		> 100 µM	> 100 µM (inactive)	> 100 µM (inactive)	> 100 µM (inactive)	> 100 µM (inactive)	> 100 µM (inactive)	> 100 µM (inactive)	> 100 µM (inactive)
COc1nc2sc3c(c2c(=O)n1CCCSSCCCn1c(OC)nc2sc4c(c2c1=O)CCCC4)CCCC3	> 100 µM (inactive)	> 100 µM (inactive)	> 100 µM (inactive)	> 100 µM (inactive)	> 100 µM (inactive)	> 100 µM (inactive)	> 100 µM (inactive)	> 100 µM (inactive)	> 100 µM (inactive)	6.92 µM (inactive)	> 100 µM (inactive)	> 100 µM	> 100 µM (inactive)	> 100 µM (inactive)	> 100 µM (inactive)	> 100 µM (inactive)	> 100 µM (inactive)	> 100 µM (inactive)	> 100 µM (inactive)
Nc1ncnc2c1ncn2C1CC(OCc2ccccc2[N+](=O)[O-])C(CO)O1 (stereo not given)	23.8 µM (inactive)	15.6 µM (inactive)	17.5 µM (inactive)	17.4 µM (inactive)	23.8 µM (inactive)	46.1 µM (inactive)	30.8 µM (inactive)	> 50 µM (inactive)	21.4 µM (inactive)	14.9 µM (inactive)	13.7 µM (inactive)	21.8 µM	16.7 µM (inactive)	21.7 µM (inactive)					
CN(C)C12C=CC=CC3=C(c4ccccc4)C(c4ccccc4)=C(c4ccccc4)C31c1ccccc1C2 (stereo not given)	> 100 µM (inactive)	> 100 µM (inactive)	> 100 µM (inactive)	> 100 µM (inactive)	> 100 µM (inactive)	> 100 µM (inactive)	> 100 µM (inactive)	> 100 µM (inactive)		> 100 µM (inactive)	> 100 µM (inactive)	> 100 µM	> 100 µM (inactive)	> 100 µM (inactive)	> 100 µM (inactive)	> 100 µM (inactive)	> 100 µM (inactive)	> 100 µM (inactive)	
COc1ccc(S(=O)(=O)Nc2ccc(-c3csc(N4C(=O)/C(=C/c5cccs5)N=C4c4ccccc4)n3)cc2)cc1Cl	65.5 µM (inactive)	34.7 µM (inactive)	> 100 µM (inactive)	40.2 µM (inactive)	34 µM (inactive)	49.7 µM (inactive)	56.1 µM (inactive)	> 100 µM (inactive)	22.5 µM (inactive)		22.3 µM (inactive)	24.9 µM		> 100 µM (inactive)	19.9 µM (inactive)	39.4 µM (inactive)	34.1 µM (inactive)	46.9 µM (inactive)	42.2 µM (inactive)
C=C1CCCCCCCCCCC1[S+]([O-])c1ccccc1 (stereo not given)	50.2 µM (inactive)	27.7 µM (inactive)	40.3 µM (inactive)	54.5 µM (inactive)		56.6 µM (inactive)		49.8 µM (inactive)	> 100 µM (inactive)	20.8 µM (inactive)		41.7 µM		38 µM (inactive)	> 100 µM (inactive)	34.4 µM (inactive)	34 µM (inactive)	30.1 µM (inactive)	49.1 µM (inactive)
COc1cc2cc[n+]3c4cc(OC)c(OC)cc4c(C)cc3c2cc1OC	> 100 µM (inactive)	> 100 µM (inactive)	> 100 µM (inactive)	> 100 µM (inactive)	> 100 µM (inactive)	29.3 µM (inactive)	> 100 µM (inactive)	> 100 µM (inactive)	> 100 µM (inactive)	> 100 µM (inactive)	> 100 µM (inactive)	> 100 µM	> 100 µM (inactive)	> 100 µM (inactive)					
O=C1C=CC2(O)OCC3C=C4O[C@@H]5OC6(CCCCC6)O[C@@H]5C4[C@@H]2[C@@H]13 (stereo not given in full)	20 µM (inactive)	20.5 µM (inactive)	22.3 µM (inactive)	22.6 µM (inactive)	24.9 µM (inactive)	> 100 µM (inactive)	20.7 µM (inactive)	31.8 µM (inactive)	13.2 µM (inactive)	16.2 µM (inactive)	11.3 µM (inactive)	17 µM	8.73 µM (inactive)	> 100 µM (inactive)					
COc1ccc(NCc2cc(OC)c(OC)c(OC)c2)cc1	0.396 µM (active)	0.265 µM (active)	0.312 µM (active)	17.3 µM (inactive)	0.716 µM (active)	0.698 µM (active)			1.39 µM (inactive)	0.612 µM (active)	0.307 µM (active)	0.18 µM		0.463 µM (active)		0.366 µM (active)	0.0867 µM (active)	0.491 µM (active)	0.857 µM (active)
C1=Cc2nc1c(-c1ccccc1)c1nc(c(-c3ccccc3)c3ccc([nH]3)c(-c3ccccc3)c3ccc([nH]3)c2-c2ccccc2)C=C1 [TETRAPHENYLPORPHYRIN]	> 100 µM (inactive)	> 100 µM (inactive)	> 100 µM (inactive)	> 100 µM (inactive)	> 100 µM (inactive)	> 100 µM (inactive)	> 100 µM (inactive)	> 100 µM (inactive)	> 100 µM (inactive)	> 100 µM (inactive)	> 100 µM (inactive)	> 100 µM	> 100 µM (inactive)	> 100 µM (inactive)					
